In ChEMBL document CHEMBL4350951, “Emerging and Re-Emerging Warheads for Targeted Covalent Inhibitors: Applications in Medicinal Chemistry and Chemical Biology” (J Med Chem, 2019):

Assays:
[1] = Cysteine reactivity assessed as cysteine oxidation; format: physicochemical
[2] = molecular target: T1, Peptidyl-prolyl cis-trans isomerase FKBP1A (Homo sapiens, UniProt P62942); test: Inhibition of recombinant human FKBP12 after 24 hrs by MS/MS analysis
[3] = molecular target: T1, Peptidyl-prolyl cis-trans isomerase FKBP1A; test: Inhibition of recombinant human FKBP12 assessed as ratio of Kinact to Ki after 24 hrs by MS/MS analysis
[4] = Half life of the compound in aqueous buffer at pH 7.2; format: physicochemical
[5] = molecular target: ALK tyrosine kinase receptor (Homo sapiens, UniProt Q9UM73)
Chain of ALK tyrosine kinase receptor (Q9UM73 whole entry): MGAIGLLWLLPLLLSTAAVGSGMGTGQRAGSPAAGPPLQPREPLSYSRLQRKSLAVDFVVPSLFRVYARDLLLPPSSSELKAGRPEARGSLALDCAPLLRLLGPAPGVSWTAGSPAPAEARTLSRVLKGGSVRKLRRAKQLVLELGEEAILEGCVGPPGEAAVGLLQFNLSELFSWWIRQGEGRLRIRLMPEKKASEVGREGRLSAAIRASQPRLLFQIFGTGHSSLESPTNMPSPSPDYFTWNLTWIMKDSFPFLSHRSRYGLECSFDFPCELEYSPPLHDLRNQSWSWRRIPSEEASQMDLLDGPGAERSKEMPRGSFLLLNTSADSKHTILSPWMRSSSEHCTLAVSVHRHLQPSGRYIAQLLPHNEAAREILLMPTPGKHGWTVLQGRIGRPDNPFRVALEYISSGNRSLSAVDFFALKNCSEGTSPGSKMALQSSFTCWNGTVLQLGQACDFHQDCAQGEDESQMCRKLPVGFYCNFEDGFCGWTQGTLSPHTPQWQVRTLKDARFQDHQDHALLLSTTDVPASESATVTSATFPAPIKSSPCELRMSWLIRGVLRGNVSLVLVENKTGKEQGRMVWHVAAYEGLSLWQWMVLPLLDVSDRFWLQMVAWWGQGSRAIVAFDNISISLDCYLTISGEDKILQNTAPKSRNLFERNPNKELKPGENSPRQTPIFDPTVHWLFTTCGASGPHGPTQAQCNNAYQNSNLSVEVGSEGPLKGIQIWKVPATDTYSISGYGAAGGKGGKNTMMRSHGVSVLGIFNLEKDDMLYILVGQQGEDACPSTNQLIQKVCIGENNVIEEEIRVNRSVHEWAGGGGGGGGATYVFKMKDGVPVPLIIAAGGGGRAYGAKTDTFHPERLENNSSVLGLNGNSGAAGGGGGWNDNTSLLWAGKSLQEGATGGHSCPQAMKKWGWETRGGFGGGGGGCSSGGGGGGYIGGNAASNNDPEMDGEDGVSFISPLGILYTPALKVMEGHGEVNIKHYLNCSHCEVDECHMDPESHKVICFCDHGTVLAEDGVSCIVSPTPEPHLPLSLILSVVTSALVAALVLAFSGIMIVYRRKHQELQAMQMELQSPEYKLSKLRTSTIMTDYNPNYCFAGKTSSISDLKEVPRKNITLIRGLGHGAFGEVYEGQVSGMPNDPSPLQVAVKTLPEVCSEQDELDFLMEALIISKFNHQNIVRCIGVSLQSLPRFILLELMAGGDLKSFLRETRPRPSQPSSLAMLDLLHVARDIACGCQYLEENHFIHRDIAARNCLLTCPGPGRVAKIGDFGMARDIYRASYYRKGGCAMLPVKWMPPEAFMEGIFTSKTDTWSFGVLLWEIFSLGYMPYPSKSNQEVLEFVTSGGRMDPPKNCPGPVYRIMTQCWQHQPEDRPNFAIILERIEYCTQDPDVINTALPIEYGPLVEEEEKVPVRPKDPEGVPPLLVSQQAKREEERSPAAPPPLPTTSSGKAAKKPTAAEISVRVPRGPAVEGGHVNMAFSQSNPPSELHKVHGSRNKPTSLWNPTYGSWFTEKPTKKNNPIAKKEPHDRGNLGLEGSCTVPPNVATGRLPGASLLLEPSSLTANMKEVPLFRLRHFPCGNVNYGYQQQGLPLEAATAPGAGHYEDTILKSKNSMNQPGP
Description: Inhibition of ALK (unknown origin) by TR-FRET assay

[6] = molecular target: T2, m7GpppX diphosphatase (Homo sapiens, UniProt Q96C86); test: Inhibition of DcpS (unknown origin) using m7GpppA as substrate by ELISA
T2 sequence (Q96C86 whole entry): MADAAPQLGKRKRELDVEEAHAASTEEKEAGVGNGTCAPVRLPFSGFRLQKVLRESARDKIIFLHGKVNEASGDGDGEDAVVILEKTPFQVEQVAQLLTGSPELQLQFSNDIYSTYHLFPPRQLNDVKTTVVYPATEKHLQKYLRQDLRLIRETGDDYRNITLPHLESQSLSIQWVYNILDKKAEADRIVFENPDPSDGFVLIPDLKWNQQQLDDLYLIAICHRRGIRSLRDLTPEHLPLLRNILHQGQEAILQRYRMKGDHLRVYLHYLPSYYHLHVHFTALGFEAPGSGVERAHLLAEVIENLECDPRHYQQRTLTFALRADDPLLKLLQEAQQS

[7] = Half life in mouse at 20 mg/kg, ip; format: ADME, organism-based; settings: in vivo
[8] = molecular target: T3, Phosphatidylinositol 4,5-bisphosphate 3-kinase catalytic subunit delta isoform (Homo sapiens) (UniProt O00329); test: (§1) Inhibition of PI3Kdelta (unknown origin)
T3 sequence (whole entry): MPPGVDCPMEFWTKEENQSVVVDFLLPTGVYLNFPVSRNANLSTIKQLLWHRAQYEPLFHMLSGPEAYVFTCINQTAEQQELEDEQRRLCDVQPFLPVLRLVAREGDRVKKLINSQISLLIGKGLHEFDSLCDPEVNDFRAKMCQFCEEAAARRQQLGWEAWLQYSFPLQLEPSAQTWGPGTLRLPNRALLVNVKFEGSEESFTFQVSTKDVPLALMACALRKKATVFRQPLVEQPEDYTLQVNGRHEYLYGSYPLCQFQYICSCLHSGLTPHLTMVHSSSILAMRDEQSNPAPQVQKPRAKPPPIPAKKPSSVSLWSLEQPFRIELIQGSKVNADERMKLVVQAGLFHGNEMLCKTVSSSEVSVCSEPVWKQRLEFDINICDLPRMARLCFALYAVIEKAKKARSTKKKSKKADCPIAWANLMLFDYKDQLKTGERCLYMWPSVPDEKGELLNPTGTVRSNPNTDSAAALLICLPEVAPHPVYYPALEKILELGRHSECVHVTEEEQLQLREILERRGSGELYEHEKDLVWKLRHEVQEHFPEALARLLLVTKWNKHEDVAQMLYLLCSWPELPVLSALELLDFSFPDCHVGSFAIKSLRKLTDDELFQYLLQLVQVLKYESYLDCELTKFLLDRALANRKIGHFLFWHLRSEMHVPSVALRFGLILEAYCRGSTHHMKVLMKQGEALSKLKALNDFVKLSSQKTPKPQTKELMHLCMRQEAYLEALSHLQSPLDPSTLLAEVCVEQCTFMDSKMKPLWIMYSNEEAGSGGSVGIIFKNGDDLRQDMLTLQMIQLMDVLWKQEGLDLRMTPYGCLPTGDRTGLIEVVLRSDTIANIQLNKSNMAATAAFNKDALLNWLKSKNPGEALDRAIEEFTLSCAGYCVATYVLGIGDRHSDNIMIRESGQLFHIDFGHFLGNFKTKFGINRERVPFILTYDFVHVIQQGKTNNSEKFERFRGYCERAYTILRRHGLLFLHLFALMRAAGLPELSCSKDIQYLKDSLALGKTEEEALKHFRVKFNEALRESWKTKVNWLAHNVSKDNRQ

[9] = molecular target: T4, Phosphatidylinositol 4,5-bisphosphate 3-kinase catalytic subunit delta isoform (Homo sapiens, UniProt O00329); test: as §1
T4 sequence (O00329 whole entry): T3 sequence (whole entry)

[10] = molecular target: Serine/threonine-protein kinase PLK1 (Homo sapiens, UniProt P53350); test: Inhibition of PLK1 (unknown origin)
Chain of Serine/threonine-protein kinase PLK1 (P53350 whole entry): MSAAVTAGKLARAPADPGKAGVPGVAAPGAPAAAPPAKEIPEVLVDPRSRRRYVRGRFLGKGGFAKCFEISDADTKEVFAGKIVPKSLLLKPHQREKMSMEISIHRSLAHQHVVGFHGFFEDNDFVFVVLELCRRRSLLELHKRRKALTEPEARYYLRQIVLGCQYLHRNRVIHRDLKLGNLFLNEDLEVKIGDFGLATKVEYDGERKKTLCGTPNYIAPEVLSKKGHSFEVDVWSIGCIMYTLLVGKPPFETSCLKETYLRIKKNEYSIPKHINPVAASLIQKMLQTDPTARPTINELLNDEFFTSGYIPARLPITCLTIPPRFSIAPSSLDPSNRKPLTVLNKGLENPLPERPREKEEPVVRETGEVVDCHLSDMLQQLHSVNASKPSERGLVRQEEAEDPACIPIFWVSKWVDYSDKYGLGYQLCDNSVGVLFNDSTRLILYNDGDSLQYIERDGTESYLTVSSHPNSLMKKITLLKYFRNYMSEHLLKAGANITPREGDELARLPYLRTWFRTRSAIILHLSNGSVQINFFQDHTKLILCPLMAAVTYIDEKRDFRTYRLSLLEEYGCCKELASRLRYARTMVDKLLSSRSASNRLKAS

[11] = test system: Hsp90 (human); test: Inhibition of human Hsp90 by MS/MS analysis
[12] = test system: Hsp90 (human); test: Inhibition of human Hsp90 assessed as ratio of Kinact to Ki by MS/MS analysis
[13] = molecular target: T5, Induced myeloid leukemia cell differentiation protein Mcl-1 (Homo sapiens, UniProt Q07820); test: Binding kinetics to MCl-1 (unknown origin) assessed as dissociation rate constant for state one
T5 sequence (Q07820 whole entry): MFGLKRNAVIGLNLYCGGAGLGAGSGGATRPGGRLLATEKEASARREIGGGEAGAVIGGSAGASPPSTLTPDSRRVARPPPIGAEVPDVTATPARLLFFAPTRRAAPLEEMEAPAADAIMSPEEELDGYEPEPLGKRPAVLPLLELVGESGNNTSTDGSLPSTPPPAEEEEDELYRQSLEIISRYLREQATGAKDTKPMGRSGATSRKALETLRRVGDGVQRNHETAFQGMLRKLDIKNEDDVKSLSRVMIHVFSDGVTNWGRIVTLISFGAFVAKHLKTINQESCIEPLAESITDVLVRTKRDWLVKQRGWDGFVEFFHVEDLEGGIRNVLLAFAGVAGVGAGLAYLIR

[14] = cells; settings: Homo sapiens, MOLP-8
Description: Cytotoxicity against human MOLP8 cells

[15] = molecular target: T5, Induced myeloid leukemia cell differentiation protein Mcl-1; test: Binding kinetics to MCl-1 (unknown origin) assessed as dissociation rate constant for state two
[16] = Half life in plasma (unknown origin); format: ADME, cell-free
[17] = Half life of the compound at pH 7.5; format: physicochemical
[18] = molecular target: Glutathione S-transferase P (Homo sapiens) (UniProt P09211); test: Inhibition of GSTP1 (unknown origin) assessed as ratio of Kinact to Ki by MS/MS analysis
Chain of Glutathione S-transferase P (Homo sapiens) (P09211 2-210 limits assumed): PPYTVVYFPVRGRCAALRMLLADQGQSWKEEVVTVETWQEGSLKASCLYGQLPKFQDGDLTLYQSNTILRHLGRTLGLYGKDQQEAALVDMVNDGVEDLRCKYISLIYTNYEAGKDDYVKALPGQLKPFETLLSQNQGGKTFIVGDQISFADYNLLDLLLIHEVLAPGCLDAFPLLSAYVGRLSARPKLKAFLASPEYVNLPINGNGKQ

[19] = molecular target: SRSF protein kinase 1 (Homo sapiens, UniProt Q96SB4); test: Inhibition of SRPK1 (unknown origin) by TR-FRET assay
Chain of SRSF protein kinase 1 (Q96SB4 whole entry): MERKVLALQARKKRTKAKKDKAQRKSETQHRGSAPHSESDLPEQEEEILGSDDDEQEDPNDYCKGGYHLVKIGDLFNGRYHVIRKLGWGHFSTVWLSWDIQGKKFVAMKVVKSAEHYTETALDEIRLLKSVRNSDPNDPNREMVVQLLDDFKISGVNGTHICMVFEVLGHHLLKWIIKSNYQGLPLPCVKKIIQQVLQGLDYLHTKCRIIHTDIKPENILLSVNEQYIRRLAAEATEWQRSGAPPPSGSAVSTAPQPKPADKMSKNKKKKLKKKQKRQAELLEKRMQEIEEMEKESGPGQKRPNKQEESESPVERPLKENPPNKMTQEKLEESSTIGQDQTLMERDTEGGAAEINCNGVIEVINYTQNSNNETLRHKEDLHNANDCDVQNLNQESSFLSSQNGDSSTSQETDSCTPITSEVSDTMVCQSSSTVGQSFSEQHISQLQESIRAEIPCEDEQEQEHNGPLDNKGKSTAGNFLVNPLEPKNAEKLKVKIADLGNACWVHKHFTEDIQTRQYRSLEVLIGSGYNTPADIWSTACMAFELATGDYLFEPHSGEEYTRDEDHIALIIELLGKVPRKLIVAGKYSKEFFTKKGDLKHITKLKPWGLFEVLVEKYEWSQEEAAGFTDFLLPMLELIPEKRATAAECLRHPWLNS

[20] = test system: Mycobacterium tuberculosis; test: Inhibition of Mycobacterium tuberculosis ICL1 assessed as ratio of Kinact to Ki
[21] = Dissociation constant, pKa of the compound; format: physicochemical
[22] = Inhibition of PLK1 C675 mutant (unknown origin); parameters: species or system Homo sapiens

T1 sequence (P62942 whole entry): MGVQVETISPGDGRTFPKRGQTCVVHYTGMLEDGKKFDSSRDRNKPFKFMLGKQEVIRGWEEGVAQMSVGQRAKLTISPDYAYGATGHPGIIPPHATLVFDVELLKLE

SMILES: C#CCCCN1c2ccccc2C(=O)CS1(=O)=O
- K [1]: 1700 M⁻¹ s⁻¹

SMILES: CCC(C)(C)C(=O)C(=O)N1CCCC[C@H]1C(=O)O[C@H](CCc1ccc(OC)c(OC)c1)c1cccc(OCC(=O)NCCCCCNC(=O)c2ccc(S(=O)(=O)N(CC#N)C(=O)CCCC[C@@H]3SC[C@@H]4NC(=O)N[C@@H]43)cc2)c1
- Ki [2]: 210 nM
- Kinact [2]: 6.1 ×10⁻³ /s
- Ratio [3]: 2.9 ×10⁴ /M/s
- half-life [4]: 43 h

SMILES: O=C1CCN(Cc2ccccc2)C(=O)C1
- K [1]: 86.4 min⁻¹

SMILES: CCc1cc2c(cc1-c1cccc(S(=O)(=O)F)c1)C(C)(C)c1[nH]c3cc(C#N)ccc3c1C2=O
- IC50 [5]: 11 nM

SMILES: Nc1nc(N)c2c(OCc3ccc(S(=O)(=O)F)cc3)cccc2n1
- IC50 [6]: < 0.02 nM

SMILES: O=C1CC(=O)c2ccccc21
- K [1]: 22.9 min⁻¹

SMILES: O=C1CS(=O)(=O)N(Cc2ccccc2)c2ccccc21
- K [1]: 190.5 min⁻¹

SMILES: N#CCS(=O)(=O)c1ccccc1
- K [1]: 78 min⁻¹

SMILES: C#Cc1cccc(Oc2ccc(-c3nn([C@@H]4CCCN(C(=O)C=C)C4)c4ncnc(N)c34)cc2)c1
- half-life [7]: 2.8 h

SMILES: O=C1CCC(=O)C1
- K [1]: 0.02 min⁻¹

SMILES: O=C1CS(=O)(=O)Cc2ccccc21
- K [1]: 54.9 min⁻¹

SMILES: O=[N+]([O-])CS(=O)(=O)c1ccccc1
- K [1]: 7.8 min⁻¹

SMILES: COc1ncc(-c2cc(-c3ncc(CN4CCN(C(C)C)CC4)o3)c3cn[nH]c3c2)cc1C(=O)Oc1ccc([N+](=O)[O-])cc1
- Kinact [8]: 0.0055 s⁻¹
- IC50 [9]: 0.617 nM
- Ki [9]: 40 nM

SMILES: NC(=O)c1sc2c([n+]1[O-])C(SC[C@H](N)C(=O)O)C(SC(F)(F)F)=CC2[N+](=O)[O-] (stereo partly drawn)
- IC50 [10]: 400 nM

SMILES: N#CCN(C(=O)CCCC(=O)NCCCn1c(Sc2cc3c(cc2I)OCO3)nc2c(N)ncnc21)S(=O)(=O)c1ccccc1
- Ki [11]: 62 nM
- Ratio [12]: 2.9 ×10⁴ /M/s

SMILES: C#CCCCC1CCC(=O)CC1=O (stereo not drawn)
- K [1]: 10 M⁻¹ s⁻¹

SMILES: C#CCCCN1CC(=O)CC1=O
- K [1]: 330 M⁻¹ s⁻¹

SMILES: C#Cc1cccc(Oc2ccc(-c3nn([C@@H]4CCCN(C(=O)/C=C/C(=O)OC(C)C)C4)c4ncnc(N)c34)cc2)c1
- half-life [7]: < 0.0333 h

SMILES: O=C1CCCC(=O)C1
- K [1]: 0.4 min⁻¹

SMILES: CS(=O)(=O)CC#N
- K [1]: 28.6 min⁻¹

SMILES: COc1ncc(-c2cc(-c3ncc(CN4CCN(C(C)C)CC4)o3)c3cn[nH]c3c2)cc1C(=O)Oc1ccc(C)cc1C
- Ki [9]: 7800 nM

SMILES: C#CCCCN1CCC(=O)CC1=O
- K [1]: 1155 M⁻¹ s⁻¹

SMILES: CC(=O)CS(=O)(=O)c1ccccc1
- K [1]: 8.7 min⁻¹

SMILES: Cc1c(-c2cccc3c(CCCOc4cccc5ccccc45)c(C(=O)O)n(C)c23)c(COc2ccc(B(O)O)c(C=O)c2)nn1C
- koff [13]: 0.13 s⁻¹
- EC50 [14]: 75 nM
- koff [15]: 0.01 s⁻¹

SMILES: O=C1CC(=O)NC(=O)N1 [BARBITURIC ACID]
- K [1]: 0.2 min⁻¹

SMILES: C#CCCCN1CS(=O)(=O)CC1=O
- K [1]: 20 M⁻¹ s⁻¹

SMILES: CN(C)c1ccc(S(=O)(=O)F)cc1
- half-life [16]: 25.1 h

SMILES: C#Cc1cccc(Oc2ccc(-c3nn([C@@H]4CCCN(C(=O)/C=C/C(=O)OC)C4)c4ncnc(N)c34)cc2)c1
- half-life [7]: < 0.0333 h

SMILES: O=S(=O)(F)c1ccccc1
- half-life [17]: 0.0833 to 0.25 h

SMILES: CC(=O)CC(C)=O
- K [1]: 3.8 min⁻¹

SMILES: C#CCCCN(c1nc(Cl)nc(Cl)n1)[C@@H](CC(C)C)C(=O)OC
- Ratio [18]: 3.12 M⁻¹ s⁻¹

SMILES: CCc1cc2c(cc1N1CCC(N3CCOCC3)CC1)C(C)(C)c1[nH]c3cc(C#N)ccc3c1C2=O [ALECTINIB]
- IC50 [19]: 11 nM

SMILES: O=C(O)CC=[N+]([O-])[O-]
- Ratio [20]: 2.6 ×10⁴ /M/s
- pKa [21]: 9

SMILES: Cc1c(-c2cccc3c(CCCOc4cccc5ccccc45)c(C(=O)O)[nH]c23)c(COc2ccc(B(O)O)c(C=O)c2)nn1C
- koff [13]: 0.14 s⁻¹
- koff [15]: 0.018 s⁻¹

SMILES: C[C@@H]1CCN(C(=O)CC#N)C[C@@H]1N(C)c1ncnc2[nH]ccc12 [TOFACITINIB]
- K [1]: 0.4 min⁻¹

SMILES: NC(=O)c1sc2c([n+]1[O-])C(SC[C@H](N)C(=O)O)C(C(F)(F)F)=CC2[N+](=O)[O-] (stereo partly drawn)
- IC50 [22]: > 100000 nM
- IC50 [10]: 2500 nM

SMILES: C#Cc1cccc(Oc2ccc(-c3nn([C@@H]4CCCN(C(=O)/C=C/C(=O)O)C4)c4ncnc(N)c34)cc2)c1
- half-life [7]: 2.15 h
